Laboratory results from publication PMC7665192, “A natriuretic peptide from Arabidopsis thaliana (AtPNP-A) can modulate catalase 2 activity” (Scientific Reports, 2020).
Positions of bridges follow the written chain, without caps; N, C: chain ends. Residues, ends and D or L forms follow the SMILES beside them. *: point of attachment. Biotin = O=C1N[C@H]2[C@H](CS[C@H]2CCCCC(=O)*)N1

Legend:
CAT2 [1] = assay: Zymogram of CAT isoforms from treated seedlings; type: in vivo, Arabidopsis thaliana; details: 1 nM peptide, sprayed 20 min before harvesting; mean ± SD, n = 3, Student's t-test P < 0.05
Description: Enzymatic activity of CAT isozymes and total CAT activities of protein extracted from WT and atpnp-a or cat2-2 mutant lines, when indicated sprayed with 1 nM pAtPNP-A or pScr 20 min before harvesting, were determined zymographically and spectrophotometrically, as described in[56]. Relative quantification of intensity of bands corresponding to different CAT isoforms was performed with ImageJ version 1.48 (https://imagej.nih.gov/ij/). Enzymatic activity of the rCAT2 in the presence of absence of 100 nM rAtPNP-A, pAtPNP-A or pScr were determined with the use of Amplex Red catalase assay kit (Invitrogen) according to the manufacturer’s instructions.
Figure 3 AtPNP-A directly interacts with CAT2 to modulate its enzymatic activity in vitro. (a) Zymogram depicting changes in the enzymatic activity of CAT isoforms extracted from wild type (WT) or cat2-2 knockout mutant seedlings in response to 1 nM pAtPNP-A or pScr. Densitometric semi-quantification of bands corresponding to CAT2, normalized to the loading control (dark-coloured band on zymogram) for WT samples treated with 1 nM pAtPNP-A or pScr (mean ± SD, Student’s t-test, n = 3, P < 0.05). […] (b) Total CAT activity in protein extracted from WT seedlings assayed with Amplex Red catalase assay kit in the presence of 1 nM pAtPNP-A, rAtPNP-A, or pScr. […] (c) Enzymatic activity of rCAT2 in the presence of 100 nM pAtPNP-A, rAtPNP-A, or pScr.

CAT2 [2] = assay: Bimolecular fluorescence complementation (BiFC); type: cell-based, Arabidopsis thaliana; details: chloroplasts of tobacco leaf protoplasts; NeYFP/CeYFP fusions; mean ± SEM, n = 30, P < 0.0001
Description: The full-length A. thaliana AtPNP-A (At2g18660) coding region entry plasmid pENTRYAtPNP-A[46] and pCR8/GW-TOPOCAT2 were recombined separately with both pSITE-nEYFP-C1 [GenBank Accession Number GU734651] and pSITE-cEYFP-C1 [GenBank Accession Number GU734652] to create pNeYFP-AtPNP-A, pCeYFP-AtPNP-A, pNeYFP-CAT2 and pCeYFP-CAT2, respectively. Each plasmid has either the N-terminal (NeYFP) or C-terminal (CeYFP) fragment of eYFP followed by either AtPNP-A or CAT2 coding region driven by the 35S plant expression promoter. After sequence was confirmed each plasmid was transformed separately into Agrobacterium tumefaciens strain GV3101 (pMP90). Tobacco leaves were infiltrated as previously described in[50]. Briefly, A. tumefaciens strains grown in 2YT medium were harvested by centrifugation and resuspended in infiltration medium (10 mM MES pH 5.6, 10 mM MgCl2, 150 µM acetosyringone) to a final OD600 of 0.2. Equal volumes of infiltration media containing relevant BiFC strains were mixed and infiltrated into the underside of tobacco leaves using a needleless syringe. Leaves were harvested after 3 days to isolate protoplasts following[51] and then immediately imaged.
BiFC images were captured at the La Trobe University LIMS BioImaging Facility using a LSM 510 confocal laser scanning microscope (Zeiss), with a × 40/1.2 water immersion objective. The natural red autofluorescence of chlorophyll was used as a marker for chloroplasts. Excitation/emission wavelengths were 488/505–530 nm for YFP and 561/650 nm long pass for red fluorescence. At least three images containing one or more protoplasts were taken for each of the plasmid construct combinations. Each image captured three separate filter scans, including YFP, red fluorescence and bright field. Post-processing of images was performed with ImageJ version 1.48 software (https://imagej.nih.gov/ij/). For each image the contrast for each panel was set at automatic contrast. A merged image was generated for reference with a 10 µm scale bar. The red fluorescence only panel was used to encircle ten chloroplasts as region of interest (ROI), then the YFP fluorescence (BiFC) calculated for each ROI was divided by the red fluorescence calculated for the same ROI. All BiFC/red fluorescence points were plotted using GraphPadPrism7 (GraphPadSoftware). Mean and standard error were calculated for each BiFC combination. All statistical analyses were performed using GraphPadPrism7.
Figure 4 AtPNP-A interacts with CAT2 in vivo. […] Exemplar merged images of protoplasts isolated from a leaf infiltrated with different combinations of N- or C-terminally tagged CAT2 and AtPNP-A are shown. (g) BiFC/Red fluorescence chloroplast analysis with mean ± SEM in pink.

[3] = test system: receptor perceiving AtPNP-A; details: cited from earlier work
Description: Similarly, identification of novel receptors targeted by an increasing number of peptidic plant hormones discovered in the last few decades[8],[9] is anticipated. One of those, the plant natriuretic peptides (PNPs), are a group of systemically mobile signals[10] that have a role in the maintenance of salt and water balance[11],[12]. An A. thaliana PNP, termed AtPNP-A (At2g18660; Q9ZV52), has been implicated in several physiological processes ranging from the regulation of stomatal aperture, osmoticum-dependent volume changes[13],[14] and modulation of developmental stage- and tissue-specif ...

| Molecule | CAT2 activity in WT plants (zymogram) (CAT2 [1]) | BiFC / Red fluorescence signal, interaction with CAT2 (CAT2 [2]) | Generation of cGMP by receptor upon AtPNP-A binding [3] |
| --- | --- | --- | --- |
| CC(C)C[C@@H]1NC(=O)[C@H](CC(N)=O)NC(=O)[C@H](CC(N)=O)NC(=O)[C@H](CCCCN)NC(=O)[C@H](C(C)C)NC(=O)CNC(=O)[C@H](C(C)C)NC(=O)[C@H](C(C)C)NC(=O)[C@H](CC(C)C)NC(=O)[C@H]([C@@H](C)O)NC(=O)[C@H](CCC(=O)O)NC(=O)[C@H](CCCNC(=N)N)NC(=O)[C@H](CCC(N)=O)NC(=O)[C@H]([C@@H](C)O)NC(=O)CNC(=O)[C@H](Cc2ccc(O)cc2)NC(=O)[C@@H](NC(=O)[C@H](C)NC(=O)[C@H](CO)NC(=O)[C@H](CCCNC(=N)N)NC(=O)[C@@H](NC(=O)[C@H](Cc2ccc(O)cc2)NC(=O)[C@@H]2CCCN2)[C@@H](C)O)CSSC[C@@H](C(=O)NCC(=O)N[C@@H](CCCNC(=N)N)C(=O)N[C@@H](CCCNC(=N)N)C(=O)N[C@@H](Cc2ccc(O)cc2)C(=O)N[C@@H](CCCNC(=N)N)C(=O)N[C@H](C(=O)N[C@@H](CCCNC(=N)N)C(=O)N[C@@H](CCCCNC(=O)CCCC[C@@H]2SC[C@@H]3NC(=O)N[C@@H]32)C(=O)O)C(C)C)NC(=O)[C@H](C)NC(=O)[C@H](CCCNC(=N)N)NC(=O)CNC(=O)[C@H](CC(N)=O)NC(=O)[C@H](CCC(N)=O)NC(=O)[C@H](Cc2c[nH]c3ccccc23)NC1=O [pAtPNP-A] (H-PYTRSACYGTQRETLVVGVKNNLWQNGRACGRRYRVRK(Biotin)-OH; disulfide 7-30; N-terminus and C-terminus assumed) | increased CAT2 activity in WT plants compared to the mutants |  |  |
| AtPNP-A: An A. thaliana PNP, termed AtPNP-A (At2g18660; Q9ZV52) |  | interaction of the proteins in chloroplasts of protoplasts | catalyzes generation of cGMP upon binding of AtPNP-A |
